Laboratory results taken from US5869489A, “Trypthophan ureas as neurokinnin antagonists” (Merck & Co., Inc., priority 1997, dated 1999).
Where two headings read alike, the source gives them in different places.

Key:
human NK2 receptor = biological target: T1, human NK2 receptor (Homo sapiens, UniProt P21452); assay: Binding assay of NK2 receptor expressed in COS or CHO cells, displacement of 125I-NKA (Table 1, hNK2)
T1 construct: expressed in transfected cells
T1 sequence (P21452 1-398): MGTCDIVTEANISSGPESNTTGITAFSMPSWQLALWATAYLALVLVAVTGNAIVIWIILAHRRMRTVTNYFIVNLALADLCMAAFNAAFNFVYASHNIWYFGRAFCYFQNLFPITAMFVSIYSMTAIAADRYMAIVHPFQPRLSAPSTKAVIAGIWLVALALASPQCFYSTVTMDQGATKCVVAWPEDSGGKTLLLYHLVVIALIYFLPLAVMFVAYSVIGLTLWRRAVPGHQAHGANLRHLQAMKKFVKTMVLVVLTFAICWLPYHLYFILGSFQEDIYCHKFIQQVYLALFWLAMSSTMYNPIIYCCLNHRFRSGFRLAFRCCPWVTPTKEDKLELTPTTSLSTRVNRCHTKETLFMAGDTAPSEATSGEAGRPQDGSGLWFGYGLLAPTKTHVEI
Method: (§1) A. Receptor Expression in COS
(§2) To express the cloned human neurokinin-1 receptor (NK 1R) transiently in COS, the cDNA for the human NK 1R was cloned into the expression vector pCDM9 which was derived from pCDM 8 (INVITROGEN) by inserting the ampicillin resistance gene (nucleotide 1973 to 2964 from BLUESCRIPT SK+) into the Sac II site. Transfection of 20 μg of the plasmid DNA into 10 million COS cells was achieved by electroporation in 800 μl of transfection buffer (135 mM NaCl, 1.2 mM CaCl2, 1.2 mM MgCl2, 2.4 mM K2 HPO4, 0.6 mM KH2 PO4, 10 mM glucose, 10 mM HEPES pH 7.4) at 260 V and 950 uF using the IBI GENEZAPPER (IBI, New Haven, Conn.). The cells were incubated in 10% fetal calf serum, 2 mM glutamine, 100 U/ml penicillin-streptomycin, and 90% DMEM media (GIBCO, Grand Island, N.Y.) in 5% CO2 at 37° C. for three days before the binding assay. Similar methods were used to express the NK2 receptor.
(§3) B. Stable Expression in CHO
(§4) To establish a stable cell line expressing the cloned human NK1R, the cDNA was subcloned into the vector pRcCMV (INVITROGEN). Transfection of 20 μg of the plasmid DNA into CHO cells was achieved by electroporation in 800 μl of transfection buffer suplemented with 0.625 mg/ml Herring sperm DNA at 300 V and 950 uF using the IBI GENEZAPPER (IBI). The transfected cells were incubated in CHO media (10% fetal calf serum, 100 U/ml pennicilin-streptomycin, 2 mM glutamine, 1/500 hypoxanthine-thymidine(ATCC), 90% IMDM media (JRH BIOSCIENCES, Lenexa, Kans.), 0.7 mg/ml G418 (GIBCO)) in 5% CO2 at 37° C. until colonies were visible. Each colony was separated and propagated. The cell clone with the highest number of human NK1R was selected for subsequent applications such as drug screening. Similar methods were used to express the human NK2 receptor.
(§5) C. Assay Protocol using COS or CHO The binding assay of human NK1R expressed in either COS or CHO cells is based on the use of ^125 I-substance P (^125 I-SP, from DU PONT, Boston, Mass.) as a radioactively labeled ligand which competes with unlabeled substance P or any other ligand for binding to the human NK1R. […] In the binding assay, 500 μl of cells were added to a tube containing 20 μl of 1.5 to 0.25 nM of ^125 I-SP and 5 μl of unlabeled substance P or any other test compound in DMSO. The tubes were incubated at 4° C. or at room temperature for 1 hour with gentle shaking. The bound radioactivity was separated from unbound radioactivity by GF/C filter (BRANDEL, Gaithersburg, Md.) which was pre-wetted with 0.1% polyethylenimine. The filter was washed with 3 ml of wash buffer (50 mM Tris pH 7.5, 5 mM MnCl2, 150 mM NaCl) three times and its radioactivity was determined by gamma counter. A similar assay was used for NK2 except ^125 I-NKA was used as the ligand.

human NK1R = biological target: T2, human NK1R (Homo sapiens, UniProt P25103); assay: Binding assay of human NK1R expressed in COS or CHO cells, displacement of 125I-substance P (Table 1, hNK1)
T2 construct: expressed in transfected cells
Method: as §1, §2, §3, §4, §5

[1] = human NK2 receptor, 125I-NKA ligand, read-out: hNK2 (IC50 nM)
[2] = human NK1 receptor, 125I-substance P ligand, read-out: hNK1 (IC50 nM)

T2 sequence (P25103 whole entry): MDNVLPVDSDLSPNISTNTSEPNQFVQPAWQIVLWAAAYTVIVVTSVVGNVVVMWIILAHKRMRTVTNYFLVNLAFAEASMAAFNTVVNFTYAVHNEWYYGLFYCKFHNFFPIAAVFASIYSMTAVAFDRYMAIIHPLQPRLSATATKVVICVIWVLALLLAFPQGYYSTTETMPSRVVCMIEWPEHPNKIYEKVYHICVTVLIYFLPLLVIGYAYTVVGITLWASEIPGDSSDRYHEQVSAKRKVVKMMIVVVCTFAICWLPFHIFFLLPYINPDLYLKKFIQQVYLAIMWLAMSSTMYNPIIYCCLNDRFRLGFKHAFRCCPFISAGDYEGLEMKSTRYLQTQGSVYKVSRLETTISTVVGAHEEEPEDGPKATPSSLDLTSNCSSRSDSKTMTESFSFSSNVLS

Row | IC50 (human NK2 receptor; [1]) [nM] | IC50 (human NK1R; [2]) [nM] | Compound | IC50 (human NK2 receptor) [nM] | IC50 (human NK1R) [nM]
1 | 50 | 60 | CN(Cc1ccccc1)C(=O)[C@H](Cc1c[nH]c2ccccc12)NC(=O)N1CCC(c2ccccc2)CC1 [Example 7] | – | –
2 | 25 | 20 | COc1ccccc1N1CCN(C(=O)N[C@@H](Cc2c[nH]c3ccccc23)C(=O)N(C)Cc2ccccc2)CC1 [Example 12, N-Benzyl-N-methyl-2-(S)-((4-(2-methoxyphenyl)piperazino)-carbonyl-amino)-3-(3-indolyl)propionamide] | – | –
3 | – | – | CN(Cc1ccccc1)C(=O)[C@H](Cc1c[nH]c2ccccc12)NC(=O)N1CCC(N2C(=O)NCc3ccccc32)CC1 [Example 11] | 60 | 100
4 | 16 | 80 | C[C@H](NC(=O)[C@H](Cc1c[nH]c2ccccc12)NC(=O)N1CCC2(CCc3ccccc32)CC1)c1ccccc1 [Example 21, N-(1(S)-Phenylethyl)-2(S)-((spiroindane-1,4'-piperidino)-carbonyl-amino)-3-(3-indolyl)propionamide] | – | –
5 | 8 | 50 | CN(Cc1ccccc1)C(=O)[C@H](Cc1c[nH]c2ccccc12)NC(=O)N1CCC2(CCc3ccccc32)CC1 [Example 4, N-Benzyl-N-methyl-2-(S)-((spiroindane-1,4'-piperidino)-carbonyl-amino)-3-(3-indolyl)propionamide] | – | –
6 | 100 | 60 | CN(Cc1ccccc1)C(=O)[C@H](Cc1c[nH]c2ccccc12)NC(=O)N1CCN(Cc2ccccc2)CC1 [Example 10, N-Benzyl-N-methyl-2-(S)-((4-benzylpiperazino)-carbonyl-amino)-3-(3-indolyl)propionamide] | – | –
7 | 12 | 20 | CN(Cc1ccccc1)C(=O)[C@H](Cc1c[nH]c2ccccc12)NC(=O)N1CCC2(CC1)CN(S(C)(=O)=O)c1ccccc12 [Example 5, N-Benzyl-N-methyl-2-(S)-((1-methanesulfonyl-spiroindoline-3,4'-piperidino)-carbonyl-amino)-3-(3-indolyl)propionamide] | – | –
8 | 200 | 575 | CN(Cc1ccccc1)C(=O)[C@@H](NC(=O)N1CCC2(C=Cc3ccccc32)CC1)c1ccccc1 [Example 37, N-Benzyl-N-methyl-2-(S)-((spiroindine-1,4'-piperidino)-carbonyl-amino)-2-phenylacetamide] | – | –
9 | 127 | 7.5 | CN(Cc1cccc(C(F)(F)F)c1)C(=O)[C@H](Cc1c[nH]c2ccccc12)NC(=O)N1CCC2(CC1)CN(S(C)(=O)=O)c1ccccc12 [Example 26, N-(3-Trifluoromethylphenyl)methyl-N-methyl-2-(S)-((1-methanesulfonyl-spiroindoline-3,4'-piperidino)-carbonyl-amino)-3-(3-indolyl)propionamide] | – | –
10 | 500 | 2 | Cc1cc(Cl)cc(CN(C)C(=O)[C@H](Cc2c[nH]c3ccccc23)NC(=O)N2CCC3(CC2)CN(S(C)(=O)=O)c2ccccc23)c1 [Example 29, N-((3-Chloro-5-methyl)phenyl)methyl-N-methyl-2-(S)-((1-methanesulfonyl-Spiroindoline-3,4'-piperidino)-carbonyl-amino)-3-(3-indolyl)propionamide] | – | –
11 | 180 | 200 | CN(Cc1ccccc1)C(=O)[C@@H](Cc1c[nH]c2ccccc12)NC(=O)N1CCC2(CC1)CN(S(C)(=O)=O)c1ccccc12 [Example 32, N-Benzyl-N-methyl-2-(R)-((1-methanesulfonyl-spiroindoline-3,4'-piperidino)-carbonyl-amino)-3-(3-indolyl)propionamide] | – | –
12 | 85 | 8 | Cc1cccc(CN(C)C(=O)[C@H](Cc2c[nH]c3ccccc23)NC(=O)N2CCC3(CC2)CN(S(C)(=O)=O)c2ccccc23)c1 [Example 25, N-(3-Methylphenyl)methyl-N-methyl-2-(S)-((1-methanesulfonyl-spiroindoline-3,4'-piperidino)-carbonyl-amino)-3-(3-indolyl)propionamide] | – | –
13 | > 1000 | 1 | O=C(OCc1cc(C(F)(F)F)cc(C(F)(F)F)c1)[C@H](Cc1c[nH]c2ccccc12)NC(=O)N1CCC2(C=Cc3ccccc32)CC1 [Example 3, 3,5-Bistrifluoromethylbenzyl 2-(S)-((spiro-1H-indene-1,4'-piperidino)-carbonyl-amino)-3-(3-indolyl)propionate] | – | –
14 | > 100 | 60 | CC(=O)NC1(c2ccccc2)CCN(C(=O)N[C@@H](Cc2c[nH]c3ccccc23)C(=O)N(C)Cc2ccccc2)CC1 [Example 9, N-Benzyl-N-methyl-2-(S)-(((4-phenyl-4-acetylamino)piperidino)-carbonyl-amino)-3-(3-indolyl)propionamide] | – | –
15 | 56 | 200 | O=C(NCCc1ccccc1)[C@H](Cc1c[nH]c2ccccc12)NC(=O)N1CCC2(CCc3ccccc32)CC1 [Example 19] | – | –
16 | 25 | 120 | CCN(Cc1ccccc1)C(=O)[C@H](Cc1c[nH]c2ccccc12)NC(=O)N1CCC2(CCc3ccccc32)CC1 [Example 20, N-Benzyl-N-ethyl-2-(S)-((spiroindane-1,4'-piperidino)-carbonyl-amino)-3-(3-indolyl)propionamide] | – | –
17 | 650 | > 1000 | O=C(Nc1ccccc1)[C@H](Cc1c[nH]c2ccccc12)NC(=O)N1CCC2(CCc3ccccc32)CC1 [Example 14, N-Phenyl-2-(S)-((spiroindane-1,4'-piperidino)-carbonyl-amino)-3-(3-indolyl)propionamide] | – | –
18 | 200 | 300 | CN(Cc1ccccc1)C(=O)[C@H](Cc1ccccc1)NC(=O)N1CCC2(C=Cc3ccccc32)CC1 [Example 36, N-Benzyl-N-methyl-2-(S)-((spiroindine-1,4'-piperidino)-carbonyl-amino)-3-phenylpropionamide] | – | –
19 | 30 | 15 | CC(=O)N1CC2(CCN(C(=O)N[C@@H](Cc3c[nH]c4ccccc34)C(=O)N(C)Cc3ccccc3)CC2)c2ccccc21 [Example 6, N-Benzyl-N-methyl-2-(S)-((1-acetylspiroindoline-3,4'-piperidino)-carbonyl-amino)-3-(3-indolyl)propionamide] | – | –
20 | 40 | 70 | CS(=O)(=O)N1CC2(CCN(C(=O)N[C@@H](Cc3c[nH]c4ccccc34)C(=O)NCc3ccccc3)CC2)c2ccccc21 [Example 2, N-Benzyl-2-(S)-((1-methanesulfonyl-spiroindoline-3,4'-piperidino)-carbonyl-amino)-3-(3-indolyl)propionamide] | – | –
21 | 28 | 1000 | C[C@@H](NC(=O)[C@H](Cc1c[nH]c2ccccc12)NC(=O)N1CCC2(CCc3ccccc32)CC1)c1ccccc1 [Example 22, N-(1(R)-Phenylethyl)-2(S)-((spiroindane-1,4'-piperidino)-carbonyl-amino)-3-(3-indolyl)propionamide] | – | –
22 | 35 | 100 | O=C(NCc1ccccc1)[C@H](Cc1c[nH]c2ccccc12)NC(=O)N1CCC2(CCc3ccccc32)CC1 [Example 15, N-Benzyl-2-(S)-((spiroindane-1,4'-piperidino)-carbonyl-amino)-3-(3-indolyl)propionamide] | – | –

Row | Compound | IC50 (human NK2 receptor; [1]) [nM] | IC50 (human NK1R; [2]) [nM] | IC50 (human NK2 receptor) [nM] | IC50 (human NK1R) [nM]
23 | N-(1(R)-Phenylpropyl)-N-methyl-2(S)-((spiroindane-1,4'-piperidino)-carbonyl-amino)-3-(3-indolyl)propionamide [Example 24] | 50 | 1000 | – | –
